Drawing on patent US7582645B2, “Pyrimidine derivatives for treatment of hyperproliferative disorders” (Bayer Pharmaceuticals Corporation, priority 2003, dated 2009), this text covers IC50 for 36 compounds.

pIC50: −log10 of the molar value. Structures can show the parent of a compound that is named as a salt.

One assay has as its system HCT116 cells. Put plainly: HCT116 cytotoxic activity assay (Alamar Blue, 72 h). The format is cell-based. The following applies: Homo sapiens, HCT-116, 72 h compound exposure, greater than 500 nM but less than or equal to 2 μM. The procedure:
Representative compounds of this invention were tested for cytotoxicity using the above-described assay procedure with the following results: […]
(The colour change of resazurin is a common sign of viable cells or microbes.)
Take `CN(C)CCOc1cc(Oc2ccc(Nc3cc(-c4ccccc4)nc(N)n3)cc2)ccn1` [Example 85, N^4-[4-({2-[2-(dimethylamino)ethoxy]pyridin-4-yl}oxy)phenyl]-6-phenylpyrimidine-2,4-diamine]: the pIC50 is 5.70 to 6.30. `CN1CCN(C(=O)c2cc(Oc3ccc(Nc4cc(-c5ccccc5)nc(N)n4)cc3)ccn2)CC1` [Example 26, N4*-[4-({2-[(4-methylpiperazin-1-yl)carbonyl]pyridin-4-yl}oxy)phenyl]-6-phenylpyrimidine-2,4-diamine trifluoroacetate] showed a pIC50 of 5.70 to 6.30.

The compound `Nc1nc(Nc2ccc(Oc3ccc(Cl)cc3)cc2)cc(-c2ccccc2)n1` [Example 12, N^4-[4-(4-chlorophenoxy)phenyl]-6-phenylpyrimidine-2,4-diamine] gave a pIC50 of 5.70 to 6.30.

In turn, `NC(=O)c1cc(Oc2ccc(Nc3cc(-c4cccc(C(F)(F)F)c4)nc(N)n3)cc2)ccn1` [Example 258, 4-[4-({2-amino-6-[3-(trifluoromethyl)phenyl]pyrimidin-4-yl}amino)phenoxy]pyridine-2-carboxamide] had a pIC50 of 5.70 to 6.30. The same measure, in the same setting: for `Nc1nc(Nc2ccc(Oc3ccnc(C(F)(F)F)c3)cc2)cc(-c2ccc(O)cc2C(F)(F)F)n1` [Example 176, 4-{2-amino-6-[(4-{[2-(trifluoromethyl)pyridin-4-yl]oxy}phenyl)amino]pyrimidin-4-yl}-3-(trifluoromethyl)phenol] the value was 5.70 to 6.30; for `Nc1nc(Nc2ccc(Oc3c(F)cncc3F)cc2)cc(-c2ccccc2)n1` [Example 5, N^4-{4-[(3,5-difluoropyridin-4-yl)oxy]phenyl}-6-phenylpyrimidine-2,4-diamine], 5.70 to 6.30. Still for that read-out and setting: for `CC(=O)Nc1ccc(-c2cc(Nc3ccc(Oc4ccnc(C)c4)cc3)nc(N)n2)cc1` [Example 308, N-{4-[2-amino-6-({4-[(2-methylpyridin-4-yl)oxy]phenyl}amino)pyrimidin-4-yl]phenyl} acetamide] the value was 5.70 to 6.30; for `NC(=O)c1cc(Oc2cccc(Nc3cc(-c4cccc(N)c4)nc(N)n3)c2)ccn1` [Example 283, 4-(3-{[2-amino-6-(3-aminophenyl)pyrimidin-4-yl]amino}phenoxy) pyridine-2-carboxamide], 5.70 to 6.30; for `CCCCc1ccc(-c2cc(Nc3ccc(Oc4ccnc(C#N)c4)cc3)nc(N)n2)cc1` [Example 220, 4-(4-{[2-amino-6-(4-butylphenyl)pyrimidin-4-yl]amino}phenoxy) pyridine-2-carbonitrile], 5.70 to 6.30.

`Nc1nc(Nc2ccc(Oc3ccnc(N(N)Cc4ccccc4)c3)cc2)cc(-c2ccccc2)n1` [Example 131, N4*-(4-{[2-(1-benzylhydrazino)pyridin-4-yl]oxy}phenyl)-6-phenylpyrimidine-2,4-diamine] showed a pIC50 of 5.70 to 6.30. On to `COc1ccc(-c2cc(Nc3ccc(Oc4ccnc(C(N)=O)c4)cc3)nc(N)n2)cn1` [Example 230, 4-(4-{[2-amino-6-(6-methoxypyridin-3-yl)pyrimidin-4-yl]amino}phenoxy) pyridine-2-carboxamide], for which the pIC50 was 5.70 to 6.30. Same read-out and setting: the value for `CCSc1ccc(-c2cc(Nc3ccc(Oc4ccnc(C(F)(F)F)c4)cc3)nc(N)n2)cc1` [Example 207, 6-[4-(ethylthio)phenyl]-N4*-(4-{[2-(trifluoromethyl)pyridin-4-yl]oxy}phenyl)pyrimidine-2,4-diamine] was 5.70 to 6.30.

The assay is the same for the next values; noted with them: Homo sapiens, HCT-116, 72 h compound exposure, greater than 2 μM.
Compound `Nc1nc(Nc2ccc(Oc3ccnc(CNC4CCCCC4)c3)cc2)cc(-c2ccccc2)n1` [Example 111, N4*-[4-({2-[(cyclohexylamino)methyl]pyridin-4-yl}oxy)phenyl]-6-phenylpyrimidine-2,4-diamine] showed a pIC50 of less than 5.70. On to `Nc1nc(Nc2ccc(Oc3ccnc(C(F)(F)F)c3)cc2)cc(-c2ccc(OC(F)(F)F)cc2)n1` [Example 217, 6-[4-(trifluoromethoxy)phenyl]-N4*- (4-{[2-(trifluoromethyl)pyridin-4-yl]oxy}phenyl)pyrimidine-2,4-diamine], for which the pIC50 is less than 5.70. On the same count and under the same terms, for `N#Cc1cc(Oc2ccc(Nc3cc(-c4ccc(Cl)c(Cl)c4)nc(N)n3)cc2)ccn1` [Example 253, 4-(4-{[2-amino-6-(3,4-dichlorophenyl)pyrimidin-4-yl]amino}phenoxy)pyridine-2-carbonitrile] the value was less than 5.70.

The compound `CNC(=O)c1cc(Oc2cccc(Nc3cc(-c4ccc(OC)cc4)nc(N)n3)c2)ccn1` [Example 77, 4-(3-{[2-amino-6-(4-methoxyphenyl)pyrimidin-4-yl]amino}phenoxy)-N-methylpyridine-2-carboxamide] showed a pIC50 of less than 5.70.

Still in this assay, the particulars now being: Homo sapiens, HCT-116, 72 h compound exposure, less than or equal to 500 nM.
`N#Cc1cc(Oc2ccc(Nc3cc(-c4ccsc4)nc(N)n3)cc2)ccn1` [Example 251, 4-(4-{[2-amino-6-(3-thienyl)pyrimidin-4-yl]amino}phenoxy) pyridine-2-carbonitrile]: the pIC50 is no less than 6.30. For the compound `Nc1nc(Nc2ccc(Oc3ccnc(C(F)(F)F)c3)cc2)cc(-c2ccoc2)n1` [Example 195, 6-(3-furyl)-N4*-(4-{[2-(trifluoromethyl)pyridin-4-yl]oxy}phenyl)pyrimidine-2,4-diamine], the pIC50 was no less than 6.30. On the same count and under the same terms, the value for `CCOc1cccc(-c2cc(Nc3ccc(Oc4ccnc(C(N)=O)c4)cc3)nc(N)n2)c1` [Example 273, 4-(4-{[2-amino-6-(3-ethoxyphenyl)pyrimidin-4-yl]amino}phenoxy) pyridine-2-carboxamide] was no less than 6.30; that for `Cc1ccccc1-c1cc(Nc2ccc(Oc3ccnc(CN)c3)cc2)nc(N)n1` [Example 154, N4*-(4-{[2-(aminomethyl)pyridin-4-yl]oxy}phenyl)-6-(2-methylphenyl) pyrimidine-2,4-diamine] was no less than 6.30.

On to `N#Cc1cc(Oc2ccc(Nc3cc(-c4ccccc4)nc(N)n3)cc2)ccn1` [Example 8, 4-{4-[(2-amino-6-phenylpyrimidin-4-yl)amino]phenoxy}pyridine-2-carbonitrile], for which the pIC50 was no less than 6.30. For `Nc1nc(Nc2ccc(Oc3ccnc(C(F)(F)F)c3)cc2)cc(-c2ccc(F)cc2F)n1` [Example 204, 6-(2,4-difluorophenyl)-N4*-(4-{[2-(trifluoromethyl)pyridin-4-yl]oxy}phenyl)pyrimidine-2,4-diamine], the pIC50 is no less than 6.30. `Nc1nc(Nc2ccc(Oc3ccnc(N4CCC[C@H]4CO)c3)cc2)cc(-c2ccccc2)n1` [Example 145, [(2S)-1-(4-{4-[(2-amino-6-phenylpyrimidin-4-yl)amino]phenoxy}pyridin-2-yl)pyrrolidin-2-yl]methanol] had a pIC50 of no less than 6.30. `COc1cccc(-c2cc(Nc3ccc(Oc4ccnc(C(F)(F)F)c4)cc3)nc(N)n2)c1` [Example 206, 6-(3-methoxyphenyl)-N4*-(4-{[2-(trifluoromethyl)pyridin-4-yl]oxy}phenyl)pyrimidine-2,4-diamine]: the pIC50 was no less than 6.30. The compound `N#Cc1cc(Oc2ccc(Nc3cc(-c4ccccc4)nc(N)n3)c(F)c2)ccn1` [Example 6, 4-{4-[(2-amino-6-phenylpyrimidin-4-yl)amino]-3-fluorophenoxy} pyridine-2-carbonitrile hydrochloride] showed a pIC50 of no less than 6.30.

With `CCc1cccc(-c2cc(Nc3ccc(Oc4ccnc(C(N)=O)c4)cc3)nc(N)n2)c1` [Example 261, 4-(4-{[2-amino-6-(3-ethylphenyl)pyrimidin-4-yl]amino}phenoxy) pyridine-2-carboxamide], the pIC50 was no less than 6.30.

Consider `CC(C)c1ccccc1-c1cc(Nc2ccc(Oc3ccnc(C(F)(F)F)c3)cc2)nc(N)n1` [Example 162, 6-(2-isopropylphenyl)-N4*- (4-{[2-(trifluoromethyl)pyridin-4-yl]oxy}phenyl) pyrimidine-2,4-diamine], for which the pIC50 was no less than 6.30.

As for `Cc1cccc(-c2cc(Nc3cccc(Oc4ccnc(C(N)=O)c4)c3)nc(N)n2)c1` [Example 296, 4-(3-{[2-amino-6-(3-methylphenyl)pyrimidin-4-yl]amino}phenoxy) pyridine-2-carboxamide], the pIC50 was no less than 6.30. Same read-out and setting: the value for `Nc1nc(Nc2ccc(Oc3ccnc(NCCCN4CCOCC4)c3)cc2)cc(-c2ccccc2)n1` [Example 142, N4*-[4-({2-[(3-morpholin-4-ylpropyl)amino]pyridin-4-yl}oxy)phenyl]-6-phenylpyrimidine-2,4-diamine] was no less than 6.30; that for `CNC(=O)c1cc(Oc2cccc(Nc3cc(-c4ccoc4)nc(N)n3)c2)ccn1` [Example 9, 4-(3-{[2-amino-6-(3-furyl)pyrimidin-4-yl]amino}phenoxy)-N-methylpyridine-2-carboxamide] was no less than 6.30. `Cc1cc(Oc2ccc(Nc3cc(-c4ccc(N)cc4)nc(N)n3)cc2)ccn1` [Example 313, 6-(4-aminophenyl)-N4*-{4-[(2-methylpyridin-4-yl)oxy]phenyl} pyrimidine-2,4-diamine] gave a pIC50 of no less than 6.30. Same read-out and setting: for `Cc1cc(Oc2ccc(Nc3cc(-c4cccc(N(C)C)c4)nc(N)n3)cc2)ccn1` [Example 305, 6-[3-(dimethylamino)phenyl]-N4*- {4-[(2-methylpyridin-4-yl)oxy]phenyl}pyrimidine-2,4-diamine] the value was no less than 6.30; for `COCCOc1cc(Oc2ccc(Nc3cc(-c4ccccc4)nc(N)n3)cc2)ccn1` [Example 84, N^4-(4-{[2-(2-methoxyethoxy)pyridin-4-yl]oxy}phenyl)-6-phenylpyrimidine-2,4-diamine], no less than 6.30. In turn, `Nc1nc(Nc2cccc(Oc3ccnc(N4CCCC4)c3)c2)cc(-c2ccccc2)n1` [Example 121, 6-phenyl-N4*-{3-[(2-pyrrolidin-1-ylpyridin-4-yl)oxy]phenyl}pyrimidine-2,4-diamine] gave a pIC50 of no less than 6.30.

Take `Nc1nc(Nc2ccc(Oc3ccnc(C(F)(F)F)c3)cc2)cc(-c2ccccc2)n1` [Example 37, 6-phenyl-N^4-(4-{[2-(trifluoromethyl)pyridin-4-yl]oxy}phenyl)pyrimidine-2,4-diamine]: the pIC50 was no less than 6.30. The compound `Nc1nc(Nc2ccc(Oc3ccnc(N(CCO)CCO)c3)cc2)cc(-c2ccccc2)n1` [Example 129, 2,2′-[(4-{4-[(2-amino-6-phenylpyrimidin-4-yl)amino]phenoxy}pyridin-2-yl)imino]diethanol] showed a pIC50 of no less than 6.30.

The term pIC50 denotes the negative decadic logarithm of the IC50, by convention in mol/L. Lower therefore signals a large IC50.
